Laboratory results taken from patent US9358305B2, “Targeted carriers for drug delivery across the gastrointestinal epithelium” (University of Maryland, College Park, priority 2009, dated 2016).
Ends that are not written are not given here.

B1: α-L-iduronidase: enzyme targeted to insulin receptor, reported brain delivery strategy (protein, UniProt P35475 28-653, looked up)
Alpha-L-iduronidase: APHLVHVDAARALWPLRRFWRSTGFCPPLPHSQADQYVLSWDQQLNLAYVGAVPHRGIKQVRTHWLLELVTTRGSTGRGLSYNFTHLDGYLDLLRENQLLPGFELMGSASGHFTDFEDKQQVFEWKDLVSSLARRYIGRYGLAHVSKWNFETWNEPDHHDFDNVSMTMQGFLNYYDACSEGLRAASPALRLGGPGDSFHTPPRSPLSWGLLRHCHDGTNFFTGEAGVRLDYISLHRKGARSSISILEQEKVVAQQIRQLFPKFADTPIYNDEADPLVGWSLPQPWRADVTYAAMVVKVIAQHQNLLLANTTSAFPYALLSNDNAFLSYHPHPFAQRTLTARFQVNNTRPPHVQLLRKPVLTAMGLLALLDEEQLWAEVSQAGTVLDSNHTVGVLASAHRPQGPADAWRAAVLIYASDDTRAHPNRSVAVTLRLRGVPPGPGLVYVTRYLDNGLCSPDGEWRRLGRPVFPTAEQFRRMRAAEDPVAAAPRPLPAGGRLTLRPALRLPSLLLVHVCARPEKPPGQVTRLRALPLTQGQLVLVWSDEHVGSKCLWTYEIQFSQDGKAYTPVSRKPSTFNLFVFSPDTGAVSGSYRVRALDYWARPGPFSDPVPYLEVPVPRGPPSPGNP

Legend:
ICAM-1 on HUVEC = test: Leukocyte transmigration across TNF-activated HUVEC monolayer in transwell; type: cell-based, human; conditions: compared to albumin, scrambled peptide and LB2 controls
Experimental: Human endothelial cells (human umbilical vein endothelial cells (HUVECs)) were grown until formation of a continuous confluent monolayer in a transwell filter located between upper and lower chambers. The cells were then treated with tumor necrosis factor alpha to mimic inflammatory activation of endothelial cells and SDF1a was added to the lower chamber to generate a gradient to attract white blood cells, as during inflammation. Lymphocytes isolated from human peripheral blood were activated with interleukin 2 and added to the upper chamber above endothelial cells in the absence (control) or presence of ICAM-1-targeting peptides A1, B7, B8, B9, B10, or D6. Albumin or a peptide of scrambled sequence were used as negative controls which should not block inflammatory transmigration of leukocytes across endothelial cells. The anti-ICAM antibody LB2, which is known to block leukocyte adhesion to ICAM-1, was used as a positive control which should block such transmigration.
Leukocytes which transmigrated to the lower chamber below endothelial cells were counted to assess their transmigration. FIG. 9 provides a graph of the resulting leukocyte transmigration as a percentage of the control. The peptides annotated with an asterisk in FIG. 9 indicate that the peptide was effective in statistically significant blockage of leukocyte transmigration across endothelial cells.

[1] = target: T1, ICAM-1 on human endothelial cells (Homo sapiens, UniProt P05362); test: Competition of binding of anti-ICAM nanocarriers to human endothelial cells by synthetic peptides; type: cell-based
T1 construct: endogenous in cells
Excerpt: (§1) (A) ELISA measurement of the binding of 7-mer peptide expressing phage library to immobilized recombinant ICAM-1 (consisting of the two most membrane-distal Ig domains—1 and 2—of mouse ICAM-1 fused to human Fc or hFc), versus their binding to control hFc. (B) Relative specificity and (C) relative affinity of ICAM-1-targeting peptide phages, determined by ELISA from the experiment in (A). (D) Relative binding of phages expressing 7-mer peptides to native ICAM-1 expressed on the surface of HV5 mouse endothelial cells, either control or activated with TNFalpha to mimic a disease phenotype. Binding was determined by microscopy using a fluorescently-labeled antibody to the phage capsid. The line in the graph indicates the level of binding of A1 phage to 293 cells, which are voided of ICAM-1-expression. (E, F) Endocytosis (1 h, 37° C.) of phages expressing 7-mer peptides by control mouse endothelial cells (E) or mouse endothelial cells incubated in the presence of 3 mM amiloride (F) was estimated by microscopy after staining surface-located phages with a Texas red-labeled antibody to the viral capsid, following by cell permeabilization and staining of all (surface and internalized) phages using a FITC-labeled antibody to the viral capsid. (G) Binding of FITC-labeled anti-ICAM polystyrene nanocarriers to human endothelial cells was evaluated by fluorescence microscopy after incubation with cells in the absence (100% level) or presence of anti-ICAM antibody, ICAM-1-targeting synthetic peptides, or peptides with their scramble sequence (e.g., A1sc).

mouse ICAM-1/hFc [2] = test: ELISA of 7-mer peptide phage clones on immobilized mouse ICAM-1/hFc vs hFc; type: binding; conditions: phage clone
Excerpt: as §1, with “(E, F) Endocytosis (1 h, 37° C.) of phages expressing 7-mer peptides by control mouse endothelial cells (E) or mouse endothelial cells incubated in the presence of 3 mM amiloride (F) was estimated by microscopy after staining surface-located phages with a Texas red-labeled antibody to the viral capsid, following by cell permeabilization and staining of all (surface and internalized) phages using a FITC-labeled antibody to the viral capsid.” left out

mouse ICAM-1/hFc [3] = target: T2, mouse ICAM-1/hFc (Mus musculus, UniProt P13597); test: as above; type: binding; conditions: phage clone
T2 construct: the two most membrane-distal Ig domains—1 and 2—of mouse ICAM-1 fused to human Fc or hFc
Excerpt: as §1, with “(E, F) Endocytosis (1 h, 37° C.) of phages expressing 7-mer peptides by control mouse endothelial cells (E) or mouse endothelial cells incubated in the presence of 3 mM amiloride (F) was estimated by microscopy after staining surface-located phages with a Texas red-labeled antibody to the viral capsid, following by cell permeabilization and staining of all (surface and internalized) phages using a FITC-labeled antibody to the viral capsid.” left out

human ICAM-1 = test: Binding of clone A1 phages to human ICAM-1/hFc and HUVEC
insulin receptor = insulin receptor (Homo sapiens, UniProt P06213); conditions: reported for other strategies; cited from earlier work

T2 sequence (P13597 28-214): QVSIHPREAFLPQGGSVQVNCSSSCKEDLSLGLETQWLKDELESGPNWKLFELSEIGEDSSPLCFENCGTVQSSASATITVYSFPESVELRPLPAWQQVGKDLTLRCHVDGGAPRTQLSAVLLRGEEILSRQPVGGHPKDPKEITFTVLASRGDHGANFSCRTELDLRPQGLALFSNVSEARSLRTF
T1 sequence (P05362 28-532): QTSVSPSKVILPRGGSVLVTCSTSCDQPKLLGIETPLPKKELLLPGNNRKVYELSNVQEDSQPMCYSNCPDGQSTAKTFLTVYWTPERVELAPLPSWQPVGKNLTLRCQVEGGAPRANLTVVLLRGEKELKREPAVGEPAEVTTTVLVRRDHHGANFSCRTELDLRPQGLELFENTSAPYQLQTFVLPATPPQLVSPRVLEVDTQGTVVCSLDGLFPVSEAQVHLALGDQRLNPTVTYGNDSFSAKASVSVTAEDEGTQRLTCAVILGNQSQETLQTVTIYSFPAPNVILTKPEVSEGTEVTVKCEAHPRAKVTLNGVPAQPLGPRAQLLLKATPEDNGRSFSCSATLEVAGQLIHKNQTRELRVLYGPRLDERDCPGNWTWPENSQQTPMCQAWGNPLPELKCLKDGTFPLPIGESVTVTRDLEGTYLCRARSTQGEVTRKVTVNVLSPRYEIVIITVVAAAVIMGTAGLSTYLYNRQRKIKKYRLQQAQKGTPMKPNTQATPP

Row | Molecule | Leukocyte transmigration across endothelial cells (ICAM-1 on HUVEC) | Inhibition of binding of anti-ICAM nanocarriers to human endothelial cells [1] [% inhibition] | Specificity vs hFc (mouse ICAM-1/hFc [2]) [fold] | Affinity to immobilized mouse ICAM-1 over non-selected phages (mouse ICAM-1/hFc [3]) [fold] | Affinity for human ICAM-1 relative to mouse ICAM-1 (human ICAM-1) | Brain accumulation, targeting to insulin receptor (insulin receptor)
1 | YPASYQR [A1, YPASYQR] | inhibit leukocyte transmigration | ~80 | ~5.1 | ~4.7 | ~70 % affinity of mouse ICAM-1 | 
2 | B1 |  |  |  |  |  | 0.02 % injected dose per gram (% ID/g)
